Results on seven molecules are retold here after the NIST ThermoML archive (doi:10.1016/j.jct.2008.12.018).

± gives the expanded uncertainty stated by the source.

The nature of this data set: activity coefficient (dimensionless); of the first substance listed, at infinite dilution; xn = mol fraction of the nth substance listed. Conditions: Liquid, Chromatography, x1 = 0.

As for `CCCCCCCC` [octane] + CCCCn1cc[n+](C)c1.N#C[S-], the activity coefficient by setting is: (298.15 K) 350 ± 24; (308.15 K) 311 ± 21; (318.15 K) 279 ± 19; (328.15 K) 243 ± 17; (338.15 K) 218 ± 15; (348.15 K) 198 ± 14. The activity coefficient (358.15 K) worked out at 180 ± 12.
With `CCCCCO` [pentan-1-ol] + CCCCn1cc[n+](C)c1.N#C[S-], the activity coefficient reads like this: (318.15 K) 1.62 ± 0.11; (328.15 K) 1.54 ± 0.1; (338.15 K) 1.5 ± 0.1; (348.15 K) 1.47 ± 0.1; (358.15 K) 1.45 ± 0.1; (368.15 K) 1.44 ± 0.09.
In the case of `CCCO` [propan-1-ol] + CCCCn1cc[n+](C)c1.N#C[S-], the activity coefficient by setting is: (308.15 K) 0.93 ± 0.06; (318.15 K) 0.9 ± 0.06; (328.15 K) 0.87 ± 0.06; (338.15 K) 0.84 ± 0.05; (348.15 K) 0.83 ± 0.05; (358.15 K) 0.81 ± 0.05. Further, the activity coefficient (368.15 K) was 0.8 ± 0.05.
As to `C1CCOC1` [tetrahydrofuran] + CCCCn1cc[n+](C)c1.N#C[S-], the activity coefficient is 2 ± 0.14 (298.15 K, 101 kPa); 1.98 ± 0.13 (308.15 K, 101 kPa); 1.99 ± 0.14 (318.15 K, 101 kPa); 1.99 ± 0.14 (328.15 K, 101 kPa); 1.99 ± 0.14 (338.15 K, 101 kPa); 1.99 ± 0.14 (348.15 K, 101 kPa). The activity coefficient by setting is: (358.15 K, 101 kPa) 1.99 ± 0.14; (368.15 K, 101 kPa) 2.01 ± 0.14.
For `c1ccsc1` [thiophene] + CCCCn1cc[n+](C)c1.N#C[S-], the activity coefficient is, setting by setting: (298.15 K) 1.21 ± 0.078; (308.15 K) 1.24 ± 0.08; (318.15 K) 1.26 ± 0.081; (328.15 K) 1.27 ± 0.082; (338.15 K) 1.29 ± 0.084; (348.15 K) 1.32 ± 0.085. Also, the activity coefficient (358.15 K) was 1.33 ± 0.086 and the activity coefficient (368.15 K) was determined as 1.36 ± 0.089.
For the molecule `Cc1ccccc1` [toluene] + CCCCn1cc[n+](C)c1.N#C[S-], the activity coefficient runs as follows: (298.15 K) 3.4 ± 0.23; (308.15 K) 3.48 ± 0.24; (318.15 K) 3.52 ± 0.24; (328.15 K) 3.53 ± 0.24; (338.15 K) 3.55 ± 0.24; (348.15 K) 3.59 ± 0.24. The activity coefficient (358.15 K) is 3.62 ± 0.25 and the activity coefficient (368.15 K) was 3.65 ± 0.25.
In the case of `O` [water] + CCCCn1cc[n+](C)c1.N#C[S-], the activity coefficient came out at 0.316 ± 0.035 (328.15 K); 0.316 ± 0.035 (338.15 K); 0.32 ± 0.035 (348.15 K); 0.323 ± 0.035 (358.15 K); 0.325 ± 0.035 (368.15 K).
